# Patent US20050208496A1, “Methods of testing for bronchial asthma or chronic obstructive pulmonary disease” (Genox Research, Inc., priority 2002, published 2005)
# Read-outs that look alike come from different tables or passages of the source.
# Test system: respiratory epithelial cells
substance,measurement,setting,value
"IL-13: human IL-13 (Peprotech, Inc.) added to the medium at 50 ng/mL to stimulate respiratory epithelial cells",PR01489 57777_at expression change,lot 1 Day 3 AI,−2.1
same,PSCA (63958_at) expression change,lot 1 Day 3 AI,−9.8
same,RAC2 32737_at expression change,lot 1 Day 3 AI,−4.3
same,RGC32 (57044_s_at) expression change,lot 1 Day 3 AI,−2.7
same,SCYB14 (65823_at) expression change,lot 1 Day 3 AI,−4.1
same,SEMA4B (46709_at) expression change,lot 1 Day 3 AI,−2.8
same,SERPINA3 (75248_at) expression change,lot 1 Day 3 AI,−4.8
same,SLC34A2 (48048_at) expression change,lot 1 Day 3 AI,−2.8
same,STEAP 40297_at expression change,lot 1 Day 3 AI,−2.2
same,TCF8 33439_at expression change,lot 1 Day 3 AI,−2.5
same,TGFBI (68339_at) expression change,lot 1 Day 3 AI,−2.9
same,TNRC3 41246_at expression change,lot 1 Day 3 AI,−2.9
same,TPM1 36790_at expression change,lot 1 Day 3 AI,−2.9
same,TPM1 36791_g_at expression change,lot 1 Day 3 AI,−2.5
same,TPM1 36792_at expression change,lot 1 Day 3 AI,−2.6
same,UGB 39220_at expression change,lot 1 Day 3 AI,−6
same,VIM 34091_s_at expression change,lot 1 Day 3 AI,−3.4
same,W72331 49486 at expression change,lot 1 Day 3 AI,−8
same,AA045020 (44676_at) expression change,lot 1 Day 3 IMM,−3.4
same,AA059445 46293_at expression change,lot 1 Day 3 IMM,−3.9
same,AA059458 (65626_at) expression change,lot 1 Day 3 IMM,−4.5
same,AA456099 (59567_at) expression change,lot 1 Day 3 IMM,−2
same,AI050855 (64285_at) expression change,lot 1 Day 3 IMM,−2.6
same,AI468340 (72604_at) expression change,lot 1 Day 3 IMM,−2.2
same,AI984780 (52384_s_at) expression change,lot 1 Day 3 IMM,−2.8
same,AQP5 32909_at expression change,lot 1 Day 3 IMM,−3.1
same,AW025596 52637_g_at expression change,lot 1 Day 3 IMM,−3.1
same,COL12A1 (44730_at) expression change,lot 1 Day 3 IMM,−2.9
same,"DSC3a, b 47119_at expression change",lot 1 Day 3 IMM,−2.6
same,HIN-1 (46200_at) expression change,lot 1 Day 3 IMM,−3.1
same,IVL 36355_at expression change,lot 1 Day 3 IMM,−8.4
same,KIAA1376 (62972_at) expression change,lot 1 Day 3 IMM,−2.5
same,KLF7 34216_at expression change,lot 1 Day 3 IMM,−3.3
same,KRT6B (62998_at) expression change,lot 1 Day 3 IMM,−3.5
same,LCE 45605_at expression change,lot 1 Day 3 IMM,−2.1
same,LOC51297 (49616_at) expression change,lot 1 Day 3 IMM,−4
same,LOC51297 (55440_at) expression change,lot 1 Day 3 IMM,−10.5
same,LOC51297 (55442_g_at) expression change,lot 1 Day 3 IMM,−4.9
same,LOC55893 (64071_at) expression change,lot 1 Day 3 IMM,−2
same,LOC129642 (42065_at) expression change,lot 1 Day 3 IMM,−2
same,MGC12536 46924_at expression change,lot 1 Day 3 IMM,−2.1
same,MGC14128 (51669_r_at) expression change,lot 1 Day 3 IMM,−2.2
same,MGC14597 (46030_at) expression change,lot 1 Day 3 IMM,−3.1
same,MGC16207 (65876_at) expression change,lot 1 Day 3 IMM,−4.5
same,N71183 52473_at expression change,lot 1 Day 3 IMM,−2.4
same,PR01489 57777_at expression change,lot 1 Day 3 IMM,−3.4
same,RAC2 32737_at expression change,lot 1 Day 3 IMM,−3.5
same,SLC11A3 (45826_at) expression change,lot 1 Day 3 IMM,−2.3
same,STEAP 40297_at expression change,lot 1 Day 3 IMM,−2.3
same,TCF8 33439_at expression change,lot 1 Day 3 IMM,−2.7
same,TPM1 36791_g_at expression change,lot 1 Day 3 IMM,−2.2
same,UCP2 37591_at expression change,lot 1 Day 3 IMM,−2.3
same,UGB 39220_at expression change,lot 1 Day 3 IMM,−4
same,VIM 34091_s_at expression change,lot 1 Day 3 IMM,−3.2
same,W72331 49486 at expression change,lot 1 Day 3 IMM,−3.2
same,AA045020 (44676_at) expression change,"lot 2, Day 3, AI",−5.7
same,AA059445 46293_at expression change,"lot 2, Day 3, AI",−4.5
same,AA059458 (65626_at) expression change,"lot 2, Day 3, AI",−5.8
same,AA079839 (69289_at) expression change,"lot 2, Day 3, AI",−2
same,AA160156 (47578_at) expression change,"lot 2, Day 3, AI",−2.3
same,AA369887 (87539_i_at) expression change,"lot 2, Day 3, AI",−3.4
same,AA456099 (59567_at) expression change,"lot 2, Day 3, AI",−2.1
same,AA772055 46104_at expression change,"lot 2, Day 3, AI",−2.7
same,AA779895 59136_at expression change,"lot 2, Day 3, AI",−3.2
same,AF052107 38262_at expression change,"lot 2, Day 3, AI",−3.8
same,AI050855 (64285_at) expression change,"lot 2, Day 3, AI",−2.9
same,AI264299 (84903_f_at) expression change,"lot 2, Day 3, AI",−10.4
same,AI432375 (49819_at) expression change,"lot 2, Day 3, AI",−2.6
same,AI468340 (72604_at) expression change,"lot 2, Day 3, AI",−2.4
same,AI669212 55436_at expression change,"lot 2, Day 3, AI",−3.7
same,AI740855 (83076_at) expression change,"lot 2, Day 3, AI",−2.7
same,AI760772 (58528_s_at) expression change,"lot 2, Day 3, AI",−2
same,AI770116 (70124_at) expression change,"lot 2, Day 3, AI",−2.6
same,AI798733 (64163_at) expression change,"lot 2, Day 3, AI",−2.3
same,AI829641 (84270_at) expression change,"lot 2, Day 3, AI",−24.1
same,AI917602 (49985_at) expression change,"lot 2, Day 3, AI",−2.4
same,AI948584 48086_at expression change,"lot 2, Day 3, AI",−15.6
same,AI984780 (52384_s_at) expression change,"lot 2, Day 3, AI",−5.3
same,AQP5 32909_at expression change,"lot 2, Day 3, AI",−5.1
same,AW022213 (79520_at) expression change,"lot 2, Day 3, AI",−2.9
same,AW025596 52634_at expression change,"lot 2, Day 3, AI",−2
same,AW025596 52637_g_at expression change,"lot 2, Day 3, AI",−7.5
same,B4GALT5 56373_at expression change,"lot 2, Day 3, AI",−2.2
same,BARX2 35425_at expression change,"lot 2, Day 3, AI",−2.5
same,BPGM (51261_at) expression change,"lot 2, Day 3, AI",−2.5
same,CBLB 514_at expression change,"lot 2, Day 3, AI",−4.6
same,CRABP-II 1057_at expression change,"lot 2, Day 3, AI",−4.7
same,CRABP-II 41783_at expression change,"lot 2, Day 3, AI",−5.4
same,DHCR24 (74557_s_at) expression change,"lot 2, Day 3, AI",−2.1
same,DKFZp434K1210 44682_at expression change,"lot 2, Day 3, AI",−2.9
same,DREV1 (63813_at) expression change,"lot 2, Day 3, AI",−2.1
same,"DSC3a, b 47119_at expression change","lot 2, Day 3, AI",−2.2
same,EIF4EBP1 (54152_at) expression change,"lot 2, Day 3, AI",−2.3
same,FLJ10298 (62490_f_at) expression change,"lot 2, Day 3, AI",−3.4
same,FLJ10718 52072_at expression change,"lot 2, Day 3, AI",−5.5
same,FLJ12541 43546_at expression change,"lot 2, Day 3, AI",−3.8
same,FLJ20048 (49196_at) expression change,"lot 2, Day 3, AI",−2.3
same,FLJ20373 54030_at expression change,"lot 2, Day 3, AI",−2.4
same,FLJ23516 47534_at expression change,"lot 2, Day 3, AI",−2.6
same,GJA1 32531_at expression change,"lot 2, Day 3, AI",−6.8
same,GSTA3 58023 at expression change,"lot 2, Day 3, AI",−5.3
same,HEY1 44783_s_at expression change,"lot 2, Day 3, AI",−5.4
same,HIN-1 (46200_at) expression change,"lot 2, Day 3, AI",−28
same,HSPC195 44705_at expression change,"lot 2, Day 3, AI",−2
same,ID1 36619_r_at expression change,"lot 2, Day 3, AI",−2.3
same,IVL 36355_at expression change,"lot 2, Day 3, AI",−3.6
same,K1IAA1102 (64345_s_at) expression change,"lot 2, Day 3, AI",−3.2
